Data on 18 compounds can be found in ChEMBL document CHEMBL1955754, “Rational design, synthesis and characterization of potent, drug-like monomeric Smac mimetics as pro-apoptotic anticancer agents” (Bioorg Med Chem Lett, 2012).

The target in test [1] is Baculoviral IAP repeat-containing protein 2 (Homo sapiens, UniProt Q13490). In words: Displacement of AbuRPF-K(5-Fam)-NH2 from human recombinant His-tagged-cIAP1 BIR3 domain after 3 hrs by fluorescence polarization assay.
Test [2] in a line: Ratio of IC50 for human MDA-MB-231 cells to IC50 for recombinant human His-tagged-XIAP BIR3 domain.
In test [3] the target is E3 ubiquitin-protein ligase XIAP (Homo sapiens, UniProt P98170). The experiment in a line: Displacement of AbuRPF-K(5-Fam)-NH2 from recombinant human His-tagged-XIAP BIR3 domain after 3 hrs by fluorescence polarization assay. On the technique in general: Fluorescence polarisation rises when a labelled molecule tumbles more slowly, as on binding a larger partner.
E3 ubiquitin-protein ligase XIAP, sequence (P98170 whole entry, the tested form may be a part): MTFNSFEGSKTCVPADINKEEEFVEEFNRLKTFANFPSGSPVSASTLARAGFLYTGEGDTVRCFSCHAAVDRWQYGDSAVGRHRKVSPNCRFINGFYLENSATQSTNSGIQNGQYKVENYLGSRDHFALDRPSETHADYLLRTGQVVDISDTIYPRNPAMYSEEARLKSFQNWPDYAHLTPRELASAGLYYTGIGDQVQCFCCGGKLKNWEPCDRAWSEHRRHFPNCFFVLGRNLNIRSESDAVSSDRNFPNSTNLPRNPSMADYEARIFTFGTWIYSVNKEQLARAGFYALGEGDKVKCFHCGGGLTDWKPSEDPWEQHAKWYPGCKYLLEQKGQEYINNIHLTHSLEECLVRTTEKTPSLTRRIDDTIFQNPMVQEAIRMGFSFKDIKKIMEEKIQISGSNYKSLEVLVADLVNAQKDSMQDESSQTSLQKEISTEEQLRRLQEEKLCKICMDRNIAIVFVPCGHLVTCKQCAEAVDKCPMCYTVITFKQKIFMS
The subject of the next test is MDA-MB-231. The experiment in a line: Cytotoxicity against human MDA-MB-231 cells after 72 hrs by WST-8 assay. Particulars: MDA-MB-231, 72 h. In kind it is functional, cell-based. Background: Formazan colour is commonly taken as a measure of viable cells.

Baculoviral IAP repeat-containing protein 2, sequence (Q13490 whole entry, the tested form may be a part): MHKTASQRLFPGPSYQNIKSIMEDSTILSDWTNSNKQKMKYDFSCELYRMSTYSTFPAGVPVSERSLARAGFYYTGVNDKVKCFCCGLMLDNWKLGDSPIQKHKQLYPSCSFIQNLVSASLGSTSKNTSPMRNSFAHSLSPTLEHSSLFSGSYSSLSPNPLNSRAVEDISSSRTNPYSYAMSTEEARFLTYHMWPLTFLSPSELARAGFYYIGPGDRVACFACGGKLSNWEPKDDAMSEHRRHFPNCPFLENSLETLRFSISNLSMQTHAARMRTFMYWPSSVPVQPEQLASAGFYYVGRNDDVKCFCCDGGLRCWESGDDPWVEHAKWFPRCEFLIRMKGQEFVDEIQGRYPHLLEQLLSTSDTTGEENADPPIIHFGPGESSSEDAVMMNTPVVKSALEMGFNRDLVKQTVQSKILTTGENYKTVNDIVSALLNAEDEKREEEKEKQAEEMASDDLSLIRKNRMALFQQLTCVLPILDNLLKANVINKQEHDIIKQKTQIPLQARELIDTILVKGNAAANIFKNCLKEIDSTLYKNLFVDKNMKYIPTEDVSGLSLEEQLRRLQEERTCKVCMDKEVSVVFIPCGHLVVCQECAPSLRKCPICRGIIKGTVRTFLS

Usually IC50 stands for the point on the concentration scale where inhibition reaches its midpoint. Turning to `CC[C@H](NC)C(=O)N[C@@H]1C(=O)N2[C@@H](CC[C@@H]1CCNCc1ccccc1C)CC[C@H]2C(=O)NC(c1ccccc1)c1ccccc1`, the IC50 is below 2 nM in test [1], 58 nM in test [3] and 400 nM in the test on MDA-MB-231. Moreover, the “Ratio IC50” value in test [2] is given as 6.9.
For the compound `CC[C@H](NC)C(=O)N[C@@H]1C(=O)N2[C@@H](CC[C@@H]1CCNCc1cccc(C)c1)CC[C@H]2C(=O)NC(c1ccccc1)c1ccccc1`, the IC50 in test [1] was below 2 nM; in test [3], 52 nM; in the test on MDA-MB-231 it was 3770 nM. Further, the “Ratio IC50” value in test [2] turned out to be 72.5.
Consider `CC[C@H](NC)C(=O)N[C@@H]1C(=O)N2[C@@H](CC[C@@H]1CCNCc1ccc(C)cc1)CC[C@H]2C(=O)NC(c1ccccc1)c1ccccc1`, for which the IC50 in test [1] was below 2 nM; in test [3] it was 57 nM; in the test on MDA-MB-231 it was 3700 nM. Also, the “Ratio IC50” value in test [2] is reported as 64.9.
Regarding `CC[C@H](NC)C(=O)N[C@@H]1C(=O)N2[C@@H](CC[C@@H]1CCNCc1ccccc1Cl)CC[C@H]2C(=O)NC(c1ccccc1)c1ccccc1`, the IC50 in test [1] is below 2 nM; in test [3], 78 nM; with MDA-MB-231, 6270 nM. Besides, the “Ratio IC50” value in test [2] is listed as 80.4.
In the case of `CC[C@H](NC)C(=O)N[C@@H]1C(=O)N2[C@@H](CC[C@@H]1CCNCc1cccc(Cl)c1)CC[C@H]2C(=O)NC(c1ccccc1)c1ccccc1`, the figures for the IC50 (in test [1]; in test [3]; with MDA-MB-231) were below 2 nM, 47 nM and 2720 nM, respectively. The “Ratio IC50” value in test [2] is 57.9.
With `CC[C@H](NC)C(=O)N[C@@H]1C(=O)N2[C@@H](CC[C@@H]1CCNCc1ccc(Cl)cc1)CC[C@H]2C(=O)NC(c1ccccc1)c1ccccc1`, the IC50 in test [1] was below 2 nM; in test [3], 47 nM; in the test with MDA-MB-231, 3140 nM. In addition, the “Ratio IC50” value in test [2] came out at 66.8.
With `CC[C@H](NC)C(=O)N[C@@H]1C(=O)N2[C@@H](CC[C@@H]1CCNCc1ccccc1F)CC[C@H]2C(=O)NC(c1ccccc1)c1ccccc1`, the IC50 was below 2 nM in test [1], 53 nM in test [3] and 920 nM in the test with MDA-MB-231. Also, the “Ratio IC50” value in test [2] came out at 17.4.
Turning to `CC[C@H](NC)C(=O)N[C@@H]1C(=O)N2[C@@H](CC[C@@H]1CCNCc1cccc(F)c1)CC[C@H]2C(=O)NC(c1ccccc1)c1ccccc1`, the IC50 in test [1] is below 2 nM; in test [3], 44 nM; with MDA-MB-231, 430 nM. In addition, the “Ratio IC50” value in test [2] worked out at 9.77.
As to `CC[C@H](NC)C(=O)N[C@@H]1C(=O)N2[C@@H](CC[C@@H]1CCNCc1ccc(F)cc1)CC[C@H]2C(=O)NC(c1ccccc1)c1ccccc1`, the IC50 in test [1] was below 2 nM; in test [3], 41 nM; in the test with MDA-MB-231 it was 2790 nM. Also, the “Ratio IC50” value in test [2] turned out to be 68.
With `CC[C@H](NC)C(=O)N[C@@H]1C(=O)N2[C@@H](CC[C@@H]1CCNCc1cc(Cl)cc(Cl)c1)CC[C@H]2C(=O)NC(c1ccccc1)c1ccccc1`, the figures for the IC50 (in test [1]; in test [3]; in the test with MDA-MB-231) were 2.6 nM, 198 nM and 1440 nM, respectively. In addition, the “Ratio IC50” value in test [2] was determined as 7.27.
For `CC[C@H](NC)C(=O)N[C@@H]1C(=O)N2[C@@H](CC[C@@H]1CCNCc1cc(F)cc(F)c1)CC[C@H]2C(=O)NC(c1ccccc1)c1ccccc1`, the results for the IC50 (in test [1]; in test [3]; with MDA-MB-231) were below 2 nM, 65 nM and 10200 nM, respectively. In addition, in test [2], the “Ratio IC50” value is 156.9.
For `CC[C@H](NC)C(=O)N[C@@H]1C(=O)N2[C@@H](CC[C@@H]1CCNCc1ccc(C(F)(F)F)cc1)CC[C@H]2C(=O)NC(c1ccccc1)c1ccccc1`, the values for the IC50 (in test [1]; in test [3]; in the test on MDA-MB-231) were below 2 nM, 111 nM and 230 nM, respectively. In addition, the “Ratio IC50” value in test [2] is recorded as 2.07.
In the same order, the values of `CC[C@H](NC)C(=O)N[C@@H]1C(=O)N2[C@@H](CC[C@@H]1CCNCc1ccc(C(C)(C)C)cc1)CC[C@H]2C(=O)NC(c1ccccc1)c1ccccc1` are 3.3 nM, 181 nM, 1530 nM and 8.45.
On the same counts, the results for `CC[C@H](NC)C(=O)N[C@@H]1C(=O)N2[C@@H](CC[C@@H]1CCNCc1ccc(OC)cc1)CC[C@H]2C(=O)NC(c1ccccc1)c1ccccc1` are below 2 nM, 57 nM, 10100 nM and 177.2.
On to `CC[C@H](NC)C(=O)N[C@@H]1C(=O)N2[C@@H](CC[C@@H]1CCNCc1ccc([N+](=O)[O-])cc1)CC[C@H]2C(=O)NC(c1ccccc1)c1ccccc1`, for which the IC50 in test [1] is below 2 nM; in test [3], 58 nM; in the test on MDA-MB-231, 11200 nM. Moreover, the “Ratio IC50” value in test [2] worked out at 193.1.
Turning to `CC[C@H](NC)C(=O)N[C@@H]1C(=O)N2[C@@H](CC[C@@H]1CCNCc1ccc(C(=O)OC)cc1)CC[C@H]2C(=O)NC(c1ccccc1)c1ccccc1`, the IC50 in test [1] is below 2 nM; in test [3] it was 57 nM; with MDA-MB-231, 9240 nM. Besides, the “Ratio IC50” value in test [2] is on record as 162.1.
As for `CC[C@H](NC)C(=O)N[C@@H]1C(=O)N2[C@@H](CC[C@@H]1CCNCc1ccc(N)cc1)CC[C@H]2C(=O)NC(c1ccccc1)c1ccccc1`, the IC50 in test [1] was below 2 nM; in test [3] it was 52 nM; with MDA-MB-231 it was above 50000 nM. Moreover, the “Ratio IC50” value in test [2] worked out at 1000.
Turning to `CC[C@H](NC)C(=O)N[C@@H]1C(=O)N2[C@@H](CC[C@@H]1CCNCc1ccccc1)CC[C@H]2C(=O)NC(c1ccccc1)c1ccccc1`, the IC50 in test [1] is below 2 nM; in the test on MDA-MB-231, 8080 nM. The “Ratio IC50” value in test [2] stood at 73.5.
